Reference: patent US20230014352A1, “INHALED STATINS AS BRONCHODILATORS TO IMPROVE LUNG FUNCTION IN RESPIRATORY DISEASES” (priority 2019, published 2023)
Entries after “also recorded” stand apart in the source; their conditions may differ.

Columns and labels:
ASM cells = experiment: RealTime-Glo Annexin V Apoptosis and Necrosis assay; type: cell-based, human
Description: Lack of apoptosis: Some studies have shown that statins at high enough doses can reduce the viability of vascular smooth muscle cells, epithelial cells, and endothelial cells (S. Ghavami et al., Biochim Biophys Acta (2014) 1843(7):1259-71; T. P. Miettinen et al., Cell Rep (2015) 13(11):2610-20).
RealTime-Glo™ Annexin V Apoptosis and Necrosis assay was performed by growing ASM cells on 96-well white cell culture plate according to the manufacturer's instructions (Promega Inc). […] In this real-time annexin V binding assay, the luminescence signal was detected for apoptosis and necrosis was detected with a fluorescence signal by using a SpectraMax® plate reader. […] (20 μg/mL) was used as a positive control (FIG. 2).

[1] = test system: myosin light chain-2 (MLC-2) phosphorylation; experiment: Thrombin-induced MLC-2 phosphorylation, western blot; type: cell-based, human; conditions: 1 or 10 μM, 24 hrs; thrombin 2 U, 30 min; FIG. 5B
Description: Antibodies for western blot analysis against total and phospho-MLC2 were obtained from Santa Cruz Biotechnology and Cell Signaling Technology, respectively. Antibodies for pROCK1, total ROCK1, and GAPDH were obtained from Abcam. Pitavastatin was obtained from Santa Cruz Biotechnology.
Human ASM cells were treated with pitavastatin (1 or 10 μM) for 24 hours, then treated with thrombin (2 U, 30 min). As depicted in FIG. 5B, pitavastatin (1 or 10 μM) inhibited thrombin-induced MLC2 phosphorylation.

O=C(O)C[C@H](O)C[C@H](O)/C=C/c1c(C2CC2)nc2ccccc2c1-c1ccc(F)cc1 [pitavastatin]
apoptosis and necrosis (cell death) (ASM cells): no evidence of apoptosis or cell death | cellular toxicity (ASM cells): did not demonstrate any | thrombin-induced MLC2 phosphorylation [1]: inhibits; also recorded: reduced MLC-2 phosphorylation
